Test results published in patent US20150057253A1, “ALKYL DERIVATIVES AS SPHINGOSINE-1 PHOSPHATE RECEPTORS MODULATORS” (Allergan, Inc., priority 2013, published 2015).

Biological target: T1, human S1P1 receptor (Homo sapiens, UniProt P21453)
T1 construct: expressed in transfected cells; membrane preparation
Experiment: GTP γ35S binding assay for S1P1 activity
Format: biochemical
Conditions: membranes of cells stably expressing the S1P1 receptor, test compounds 0.08 to 5,000 nM
Description: Compounds were synthesized and tested for S1P1 activity using the GTP γ^35S binding assay. These compounds may be assessed for their ability to activate or block activation of the human S1P1 receptor in cells stably expressing the S1P1 receptor.
GTP γ^35S binding was measured in the medium containing (mM) HEPES 25, pH 7.4, MgCl2 10, NaCl 100, dithiothreitol 0.5, digitonin 0.003%, 0.2 nM GTP γ^35S, and 5 μg membrane protein in a volume of 150 μl. Test compounds were included in the concentration range from 0.08 to 5,000 nM unless indicated otherwise. Membranes were incubated with 100 μM 5′-adenylylimidodiphosphate for 30 min, and subsequently with 10 μM GDP for 10 min on ice. Drug solutions and membrane were mixed, and then reactions were initiated by adding GTP γ^35S and continued for 30 min at 25° C. Reaction mixtures were filtered over Whatman GF/B filters under vacuum, and washed three times with 3 mL of ice-cold buffer (HEPES 25, pH7.4, MgCl2 10 and NaCl 100). Filters were dried and mixed with scintillant, and counted for ^35S activity using a β-counter. Agonist-induced GTP γ^35S binding was obtained by subtracting that in the absence of agonist. Binding data were analyzed using a non-linear regression method. In case of antagonist assay, the reaction mixture contained 10 nM […] in the presence of test antagonist at concentrations ranging from 0.08 to 5000 nM.

T1 sequence (P21453 whole entry): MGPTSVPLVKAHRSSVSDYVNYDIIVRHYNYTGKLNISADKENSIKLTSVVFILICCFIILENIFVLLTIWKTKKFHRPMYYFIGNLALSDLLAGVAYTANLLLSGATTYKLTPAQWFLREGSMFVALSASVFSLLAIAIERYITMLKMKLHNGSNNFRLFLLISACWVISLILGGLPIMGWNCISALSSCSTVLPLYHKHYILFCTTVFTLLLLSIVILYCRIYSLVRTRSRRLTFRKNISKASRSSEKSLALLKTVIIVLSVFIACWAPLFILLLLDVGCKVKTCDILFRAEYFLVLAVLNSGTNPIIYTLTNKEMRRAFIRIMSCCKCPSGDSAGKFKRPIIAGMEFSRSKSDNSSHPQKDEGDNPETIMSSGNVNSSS

SMILES | EC50
Cc1ccc(CC(CCCCc2ccc(CNCCCP(=O)(O)O)cc2)c2cc(F)cc(F)c2)cc1C (stereo not drawn) [[3-({4-[5-(3,5-Difluorophenyl)-6-(3,4-dimethylphenyl)hexyl]benzyl}amino)propyl]phosphonic acid] | 5.09 nM
Cc1ccc(CC(CCCCc2ccc(CNCCCP(=O)(O)O)cc2)c2cccc(Cl)c2)cc1C (stereo not drawn) [[3-({4-[5-(3-Chlorophenyl)-6-(3,4-dimethylphenyl)hexyl]benzyl}amino)propyl]phosphonic acid] | 3.72 nM
Cc1ccc(CC(CCCc2ccc(CNCCC(=O)O)cc2)c2cccc(Cl)c2)cc1C (stereo not drawn) [3-({4-[4-(3-Chlorophenyl)-5-(3,4-dimethylphenyl)pentyl]benzyl}amino)propanoic acid] | 142 nM
Cc1ccc(CC(CCCCc2ccc(CNCCC(=O)O)cc2)c2cc(F)cc(F)c2)cc1C (stereo not drawn) [3-({4-[5-(3,5-Difluorophenyl)-6-(3,4)-dimethylphenyl)hexyl]benzyl}amino)propanoic acid] | 6.79 nM
Cc1ccc(CC(CCCc2ccc(CNCCCP(=O)(O)O)cc2)c2cccc(Cl)c2)cc1C (stereo not drawn) [[3-({4-[4-(3-Chlorophenyl)-5-(3,4-dimethylphenyl)pentyl]benzyl}amino)propyl]phosphonic acid] | 3.09 nM
Cc1ccc(CC(CCCCc2ccc(CNCCC(=O)O)cc2)c2cccc(Cl)c2)cc1C (stereo not drawn) [3-({4-[5-(3-Chlorophenyl)-6-(3,4-dimethylphenyl)hexyl]benzyl}amino)propanoic acid] | 20.1 nM
